{"source": "patent US20260076346A1", "about": "“IMMUNODEFICIENT NON-HUMAN ANIMALS FOR ASSESSING DRUG METABOLISM AND TOXICITY” (UNIVERSITY OF DUNDEE, priority 2022, published 2026)", "key": {"[1]": {"system": "5555 murine melanoma cell line", "conditions": "reported by Hirata et al.; cited from earlier work"}, "[2]": {"system": "5555 murine melanoma cell line", "conditions": "reported by Hirata et al.; cited from earlier work", "remark": "listed apart in the source"}, "[3]": {"system": "5555 murine melanoma cells", "assay": "Syngeneic graft of 5555 murine melanoma cells in 8HUM mice, tumour volume under daily oral treatment", "format": "in vivo, mouse", "conditions": "adult female 8HUM mice, n=5, 31.5 mg/kg daily p.o. from day 5 after implantation, study ended day 15, versus vehicle", "description": "FIG. 1: A. Xenograft of BRAFV600E human melanoma A375 cells in Rag2^null/8HUM mice (top). Bottom-no growth of A375 cells in immunocompetent 8HUM mice. B. Growth of a murine melanoma syngeneic graft in 8HUM mice and response to dabrafenib treatment. Adult female 8HUM_Rag2−/− mice (18-21w, n=5) were injected subcutaneously (s.c.) in one flank with 3.5×10^6 5555 murine melanoma cells, in 100 μl ECM diluted 1:1 with DMEM. […] Tumour measurements were taken three times weekly, then daily as required, and tumour volume calculated as detailed in Methods section. […]\nData analysis: Dependencies of calculated tumour volumes versus time were analysed by non-linear regression using exponential growth and exponential decay functions (Prism 5 software, Graphpad, US). […]\nA375 human melanoma cells (ATCC: CRL-1619; RRID: CVCL_UD29) and 5555 murine melanoma cells (19-21) were grown as directed, with the latter subject to commercial murine pathogen testing (IDEXX Bioanalytics GmbH, Germany) and both to in-house mycoplasma testing (MycoAlert Mycoplasma Detection kit, Lonza Rockland, USA) before use. Passage number was recorded for each study. […]\nOnce established, tumours were measured twice in two dimensions (maximum breadth and length) using digital callipers, by the same person to avoid interindividual variation. […]"}, "[4]": {"system": "BRAFV600E human melanoma A375 cells", "assay": "A375 human melanoma xenograft in 8HUM_Rag2-/- mice, tumour volume under daily oral treatment", "format": "in vivo", "conditions": "adult female 8HUM_Rag2-/- mice", "experimental": "Adult female 8HUM mice (11-19w, n=3) were injected s.c. in both flanks with 4.4×10^6 A375 melanoma cells, in 100 μl DMEM. Tumours were allowed to establish and on day 28 after implantation daily treatment was commenced with either vehicle (0.5% (w/v) hydroxypropylmethylcellulose, 0.2% (v/v) Tween-80; closed circles) or dabrafenib (in vehicle, open circles) suspended at 6.3 mg/ml and administered at 5 ml/kg, such that dabrafenib dose administered was 31.5 mg/kg (arrow). Tumour measurements were taken three times weekly, then daily as required, and total volume of tumours on both flanks was calculated as detailed in Methods section.\nAdult female (>8<22 weeks) mice were randomly allocated into control or experimental groups and allowed to adapt to their social setting for 7d before study start. Cages were adjacent to each other on the same level of a ventilated rack, in the same room, for the study duration.\nData analysis: Dependencies of calculated tumour volumes versus time were analysed by non-linear regression using exponential growth and exponential decay functions (Prism 5 software, Graphpad, US). Rate constants in both functions were constrained to positive values to maintain consistency with the function name. Values for plateau parameters in exponential decay function were set to zero."}}, "note": "“Also recorded” adds a separate entry of the source."}
{"smiles": "CCCS(=O)(=O)Nc1ccc(F)c(C(=O)c2c[nH]c3ncc(Cl)cc23)c1F", "note": "[PLX4720]", "values": [{"measurement": "sensitivity of 5555 cell line in vitro", "setting": "[1]", "value": "sensitive"}, {"measurement": "sensitivity of 5555 cell line in vivo", "setting": "[2]", "value": "refractory"}]}
{"smiles": "CC(C)(C)c1nc(-c2cccc(NS(=O)(=O)c3c(F)cccc3F)c2F)c(-c2ccnc(N)n2)s1", "note": "[dabrafenib]", "values": [{"measurement": "tumour growth / mean tumour volume of 5555 (GM5555) murine melanoma syngeneic graft", "setting": "[3]", "value": "became almost undetectable; also recorded: exquisitely sensitive"}, {"measurement": "tumour growth / mean tumour volume of 5555 (GM5555) murine melanoma syngeneic graft", "setting": "[3]; listed as Dabrafenib", "value": "successfully inhibited"}, {"measurement": "fit of tumour volume versus time by non-linear regression (exponential growth or decay)", "setting": "[4]; A375 xenograft, 31.5 mg/kg daily p.o. d28-d35, vehicle group followed exponential growth", "value": "follows exponential decay dependency"}, {"measurement": "total mean tumour volume of A375 xenograft (both flanks)", "setting": "[4]; n=3, 31.5 mg/kg daily p.o. from d28 to d35, versus vehicle", "value": "shrank in size"}]}
